Reference: patent publication US20060069132A1, “Azolecarboxamide herbicides” (priority 2004, published 2006)
Read-outs that look alike come from different tables or passages of the source.

Tests used:
barnyardgrass = assay: Test B pre-/postemergence herbicide test; assay type: in vivo, Echinochloa crus-galli; details: Echinochloa crus-galli; for pest or weed control at 125 g/ha: 125 g ai/ha; for pest or weed control at 500 g/ha: 500 g ai/ha
In short: (§1)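 Pre: seeds sown, then sprayed. Post: 1–4-leaf plants (2–18 cm) sprayed at the same time. Paddy: flooded, treated at 2-leaf stage. Formulation: non-phytotoxic solvent with surfactant. Greenhouse 13–15 days; visual 0–100 score relative to controls.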

Surinam grass = assay: Test B pre-/postemergence herbicide test; assay type: in vivo, Urochloa decumbens; details: Urochloa decumbens; for pest or weed control at 125 g/ha: 125 g ai/ha; for pest or weed control at 500 g/ha: 500 g ai/ha
In short: (§2)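 Herbicidal effect was judged by eye on a 0–100 scale after plants stood 13 to 15 days in the greenhouse following pre- or postemergence treatment with surfactant-containing formulations.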

cocklebur = assay: Test B pre-/postemergence herbicide test; assay type: in vivo, Xanthium strumarium; details: Xanthium strumarium; for pest or weed control at 125 g/ha: 125 g ai/ha; for pest or weed control at 500 g/ha: 500 g ai/ha
In short: as §1

corn = assay: Test B pre-/postemergence herbicide test; assay type: in vivo, Zea mays; details: Zea mays; for plant injury at 125 g/ha: 125 g ai/ha
In short: as §2

large crabgrass = assay: Test B pre-/postemergence herbicide test; assay type: in vivo, Digitaria sanguinalis; details: Digitaria sanguinalis; for pest or weed control at 125 g/ha: 125 g ai/ha; for pest or weed control at 500 g/ha: 500 g ai/ha
In short: as §2

giant foxtail = assay: Test B pre-/postemergence herbicide test; assay type: in vivo, Setaria faberi; details: Setaria faberi, 336 h; for pest or weed control at 125 g/ha: 125 g ai/ha; for pest or weed control at 500 g/ha: 500 g ai/ha
In short: as §2

lambsquarters = assay: Test B pre-/postemergence herbicide test; assay type: in vivo, Chenopodium album; details: Chenopodium album, 336 h; for pest or weed control at 125 g/ha: 125 g ai/ha
In short: as §2

pigweed = assay: Test B pre-/postemergence herbicide test; assay type: in vivo, Amaranthus retroflexus; details: Amaranthus retroflexus, post-emergence, 336 h, postemergence, read-out: Pigweed plant response rating
In short: as §2

velvetleaf = assay: Test B pre-/postemergence herbicide test; assay type: in vivo, Abutilon theophrasti; details: Abutilon theophrasti, 336 h; for pest or weed control at 125 g/ha: 125 g ai/ha; for pest or weed control at 500 g/ha: 500 g ai/ha
In short: as §2

blackgrass = assay: Test B postemergence herbicide test; assay type: in vivo, Alopecurus myosuroides; details: Alopecurus myosuroides, post-emergence, 336 h, postemergence, visual rating, scale 0 (no effect) to 100 (complete control), read-out: Blackgrass plant response rating
In short: (§3)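 Read-out: visual comparison with controls, scored 0 to 100, where 100 means complete control and 0 no effect. Formulated chemicals were applied postemergence to plants 2–18 cm tall (1- to 4-leaf), or to flooded-paddy plants at the 2-leaf stage, then held 13 to 15 days under glass.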

wheat = assay: Test B postemergence herbicide test; assay type: in vivo, Triticum aestivum; details: Triticum aestivum, post-emergence, 336 h, postemergence, read-out: Wheat plant response rating
In short: (§4)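 Greenhouse test; postemergence application to plants at 1–4 leaves (2–18 cm); paddy species at 2 leaves; evaluated visually vs controls at 13–15 days; scale 0–100 (100 = complete control).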

wild oat = assay: Test B postemergence herbicide test; assay type: in vivo, Avena fatua; details: Avena fatua, post-emergence, 336 h, postemergence, read-out: Oat, Wild plant response rating
In short: as §4

rice = assay: Test B flooded paddy test; assay type: in vivo, Oryza sativa; details: Oryza sativa, 336 h, 1000 g ai/ha, scale 0 to 100 (0 no effect, 100 complete control), read-out: Rice plant response rating
In short: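 Treated at 2-leaf (paddy) or 1–4-leaf, 2–18 cm (postemergence); greenhouse 13–15 d; visual score vs control, 0 none to 100 complete control; dash = not tested.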

[1] = system: small flower umbrella sedge; assay: Test B flooded paddy test; assay type: in vivo, Cyperus difformis; details: Cyperus difformis, 336 h, 1000 g ai/ha, scale 0 to 100 (0 no effect, 100 complete control), read-out: Sedge, Umbrella plant response rating
In short: as §3

ducksalad = assay: Test B flooded paddy test; assay type: in vivo, Heteranthera limosa; details: Heteranthera limosa, 336 h, 1000 g ai/ha, scale 0 to 100 (0 no effect, 100 complete control), read-out: Ducksalad plant response rating
In short: as §3

[2] = post-emergence, postemergence, visual rating, scale 0 (no effect) to 100 (complete control), read-out: Barnyardgrass plant response rating
[3] = post-emergence, postemergence, visual rating, scale 0 (no effect) to 100 (complete control), read-out: Cocklebur plant response rating
[4] = 125 g ai/ha, visual rating, scale 0 (no effect) to 100 (complete control)
[5] = 500 g ai/ha, scale 0 to 100, 0 is no effect, 100 is complete control

CCOC(=O)c1ccc(F)c(NC(=O)C2CC(C(C)(C)C)=NN2CC)c1 (stereo not drawn) [Compound 267, ethyl 3-[[[3-(1,1-dimethylethyl)-1-ethyl-4,5-dihydro-1H-pyrazol-5-yl]carbonyl]amino]-4-fluorobenzoate]
pest or weed control at 125 g/ha (barnyardgrass; [2]): 40% | pest or weed control at 500 g/ha (barnyardgrass; [2]): 90% | pest or weed control at 125 g/ha (barnyardgrass; pre-emergence, 0 = no effect, 100 = complete control, read-out: Barnyardgrass plant response rating (0 to 100 scale)): 20% | pest or weed control at 500 g/ha (barnyardgrass; pre-emergence, visual rating, 0 = no effect, 100 = complete control, read-out: Plant response rating, Barnyardgrass): 70% | pest or weed control at 125 g/ha (Surinam grass; post-emergence, postemergence, visual rating, scale 0 (no effect) to 100 (complete control), read-out: Surinam Grass plant response rating): 30% | pest or weed control at 500 g/ha (Surinam grass; post-emergence, postemergence, scale 0 to 100, 0 is no effect, 100 is complete control, read-out: Surinam Grass plant response rating): 50% | pest or weed control at 125 g/ha (Surinam grass; pre-emergence, 0 = no effect, 100 = complete control, read-out: Surinam Grass plant response rating (0 to 100 scale)): 10% | pest or weed control at 500 g/ha (Surinam grass; pre-emergence, visual rating, 0 = no effect, 100 = complete control, read-out: Plant response rating, Surinam Grass): 50% | pest or weed control at 125 g/ha (cocklebur; [3]): 30% | pest or weed control at 500 g/ha (cocklebur; [3]): 90% | pest or weed control at 125 g/ha (cocklebur; pre-emergence, 0 = no effect, 100 = complete control, read-out: Cocklebur plant response rating (0 to 100 scale)): 0% | pest or weed control at 500 g/ha (cocklebur; pre-emergence, visual rating, 0 = no effect, 100 = complete control, read-out: Plant response rating, Cocklebur): 0% | plant injury at 125 g/ha (corn; post-emergence, postemergence, visual rating, scale 0 (no effect) to 100 (complete control), read-out: Corn plant response rating): 20% | plant injury at 500 g/ha (corn; post-emergence, postemergence, 500 g ai/ha, scale 0 to 100, 0 is no effect, 100 is complete control, read-out: Corn plant response rating): 40% | plant injury at 125 g/ha (corn; pre-emergence, 0 = no effect, 100 = complete control, read-out: Corn plant response rating (0 to 100 scale)): 0% | Corn plant response rating (crop injury, 0 = no effect, 100 = complete kill) at 500 g/ha (corn; pre-emergence, 500 g ai/ha, visual rating, 0 = no effect, 100 = complete control): 20% | pest or weed control at 125 g/ha (large crabgrass; post-emergence, postemergence, visual rating, scale 0 (no effect) to 100 (complete control), read-out: Crabgrass, Large plant response rating): 20% | pest or weed control at 500 g/ha (large crabgrass; post-emergence, postemergence, scale 0 to 100, 0 is no effect, 100 is complete control, read-out: Crabgrass, Large plant response rating): 40% | pest or weed control at 125 g/ha (large crabgrass; pre-emergence, 0 = no effect, 100 = complete control, read-out: Crabgrass, Large plant response rating (0 to 100 scale)): 40% | pest or weed control at 500 g/ha (large crabgrass; pre-emergence, visual rating, 0 = no effect, 100 = complete control, read-out: Plant response rating, Crabgrass, Large): 100% | pest or weed control at 125 g/ha (giant foxtail; post-emergence, postemergence, visual rating, scale 0 (no effect) to 100 (complete control), read-out: Foxtail, Giant plant response rating): 40% | pest or weed control at 500 g/ha (giant foxtail; post-emergence, postemergence, scale 0 to 100, 0 is no effect, 100 is complete control, read-out: Foxtail, Giant plant response rating): 50% | pest or weed control at 125 g/ha (giant foxtail; pre-emergence, 0 = no effect, 100 = complete control, read-out: Foxtail, Giant plant response rating (0 to 100 scale)): 30% | pest or weed control at 500 g/ha (giant foxtail; pre-emergence, visual rating, 0 = no effect, 100 = complete control, read-out: Plant response rating, Foxtail, Giant): 80% | pest or weed control at 125 g/ha (lambsquarters; post-emergence, postemergence, visual rating, scale 0 (no effect) to 100 (complete control), read-out: Lambsquarters plant response rating): 30% | pest or weed control at 500 g/ha (lambsquarters; post-emergence, postemergence, 500 g ai/ha, scale 0 to 100, 0 is no effect, 100 is complete control, read-out: Lambsquarters plant response rating): 50% | pest or weed control at 125 g/ha (lambsquarters; pre-emergence, 0 = no effect, 100 = complete control, read-out: Lambsquarters plant response rating (0 to 100 scale)): 0% | pest or weed control at 125 g/ha (pigweed; [4]): 60% | pest or weed control at 500 g/ha (pigweed; [5]): 90% | pest or weed control at 125 g/ha (velvetleaf; post-emergence, postemergence, visual rating, scale 0 (no effect) to 100 (complete control), read-out: Velvetleaf plant response rating): 50% | pest or weed control at 500 g/ha (velvetleaf; post-emergence, postemergence, scale 0 to 100, 0 is no effect, 100 is complete control, read-out: Velvetleaf plant response rating): 70% | pest or weed control at 125 g/ha (velvetleaf; pre-emergence, 0 = no effect, 100 = complete control, read-out: Velvetleaf plant response rating (0 to 100 scale)): 20% | pest or weed control at 500 g/ha (velvetleaf; pre-emergence, visual rating, 0 = no effect, 100 = complete control, read-out: Plant response rating, Velvetleaf): 50% | pest or weed control at 125 g/ha (blackgrass; 125 g ai/ha): 20% | pest or weed control at 500 g/ha (blackgrass; 500 g ai/ha): 40% | plant injury at 125 g/ha (wheat; [4]): 20% | plant injury at 500 g/ha (wheat; [5]): 30% | pest or weed control at 125 g/ha (wild oat; [4]): 30% | pest or weed control at 500 g/ha (wild oat; [5]): 40% | plant injury at 1000 g/ha (rice): 70% | pest or weed control at 1000 g/ha [1]: 70% | pest or weed control at 1000 g/ha (ducksalad): 0%
